Columns and labels:
[1] = Dispersibility in water, mixture stirred violently; type: physicochemical; settings: 5 mg added into 100 mL of water, stirring violently
Method: Oxidized coenzyme Q10 crystals (5 mg) or reduced coenzyme Q10 crystals (5 mg) as obtained in the Production Example 1 was added into 100 mL of water, and each mixture was then stirring violently. In the both mixtures, one part of fine particles adhered to the wall of vessel, and another part thereof formed lumps of particles floated on the water surface.

[2] = Adhesion of particles to the wall of a glass sample bottle on shaking; type: physicochemical; settings: 500 mg in a 10-mL glass sample bottle, shaken
Method: Fine particles as obtained in Example 4 (500 mg) was placed in a 10-mL glass sample bottle, and then shaken.
Reduced coenzyme Q10 crystals as obtained in Production Example 1 (500 mg) was placed in a 10-mL glass sample bottle, and then shaken in the same manner as Example 8.

SMILES | dispersibility in water [1] | adhesion to the wall of bottle [2]
COc1c(O)c(C)c(C/C=C(\C)CC/C=C(\C)CC/C=C(\C)CC/C=C(\C)CC/C=C(\C)CC/C=C(\C)CC/C=C(\C)CC/C=C(\C)CC/C=C(\C)CCC=C(C)C)c(O)c1OC [reduced coenzyme Q10 crystals, reduced coenzyme Q10] | the particles were not dispersed easily | most of the crystals were adhered to the wall
COC1=C(OC)C(=O)C(C/C=C(\C)CC/C=C(\C)CC/C=C(\C)CC/C=C(\C)CC/C=C(\C)CC/C=C(\C)CC/C=C(\C)CC/C=C(\C)CC/C=C(\C)CCC=C(C)C)=C(C)C1=O [Oxidized coenzyme Q10 crystals, Oxidized coenzyme Q10] | the particles were not dispersed easily | –

Source: US20070053985A1, “Coenzyme Q10-containing fine particle with excellent dispersibility” (KANEKA CORPORATION, priority 2005, published 2007)
